According to patent US9493435B2, “IRE-1α inhibitors” (MannKing Corporation, priority 2009, dated 2016):

How the values were obtained:
XBP-1 splicing = XBP-1 splicing in vivo in a model of ER stress (tunicamycin-treated SCID mice); parameters: species or system mouse; settings: tunicamycin 1 mg/kg IP, 100, 50 or 25 mg/kg orally, 2 hour exposure, RT-PCR
Protocol: SCID mice were treated with tunicamycin 1 mg/kg IP. Compound no. 12-4 was administered orally two hours later at one of three doses: 100 mg/kg, 50 mg/kg, or 25 mg/kg (2 hour exposure) in 10% hydroxypropyl-beta-cyclodextrin (HPBCD). The total exposure to tunicamycin was 4 hours, and the total exposure to compound 12-4 was 2 hours.
Livers and kidneys were harvested and total RNA was prepared using Trizol. RT-PCR was performed using murine specific XBP1 primers flanking the 26-nt intron and products were separated on 4% agarose gel. The results are shown in FIG. 1B (liver) and FIG. 1C, in which each lane represents an individual mouse (n=4).

[1] = tested on: IRE-1α-mediated XBP-1 splicing in human myeloma MM.1s cells; experiment: Cellular XBP-1 splicing assay in myeloma cells (RT-PCR); type: cell-based; settings: average EC50, endogenous XBP-1 splicing in myeloma cells, DTT stress
Protocol: After an additional 45 minutes (2 hours total) with compound and DTT, the cells are harvested with TRIZOL® (a mono-phasic solution of phenol and guanidine isothiocyanate), and total RNA is prepared as directed by the manufacturer (Invitrogen). Human XBP-1 is amplified by RT-PCR with the following primers, which flank the 26 base unconventional intron excised by IRE-1α:
RT-PCR of unstressed (U) cells then generates the upper band. When cells are stressed (S) with the endoplasmic reticulum (ER) stressing agent DTT, IRE-1α is activated due to accumulating unfolded protein and the resulting RT-PCR product is 26 base pairs shorter.
Compounds which pass specificity assays are assayed for cellular EC50 using endogenous XBP-1 splicing in myeloma cells. XBP-1 is regulated through the excision of a 26 nucleotide intron from the XBP-1 mRNA by the highly specific endoribonuclease activity of IRE-1α. […] This splicing event is used to measure IRE-1α activity on XBP-1 mRNA in cells and tissues.
Briefly, compounds are incubated in the presence or absence of an ER stress agent (e.g., DTT), and the ratio of XBP-1u (unspliced) to XBP-1s (spliced) is quantified by RT-PCR.

[2] = biological target: human IRE-1α (GST-IRE-1α) (Homo sapiens (Human), UniProt O75460); experiment: IRE-1α assay (cleavage of mini-XBP-1 mRNA stem-loop substrate); type: biochemical; settings: average IC50 for inhibition of IRE-1α in vitro
Chain of human IRE-1α (GST-IRE-1α) (O75460 19-977): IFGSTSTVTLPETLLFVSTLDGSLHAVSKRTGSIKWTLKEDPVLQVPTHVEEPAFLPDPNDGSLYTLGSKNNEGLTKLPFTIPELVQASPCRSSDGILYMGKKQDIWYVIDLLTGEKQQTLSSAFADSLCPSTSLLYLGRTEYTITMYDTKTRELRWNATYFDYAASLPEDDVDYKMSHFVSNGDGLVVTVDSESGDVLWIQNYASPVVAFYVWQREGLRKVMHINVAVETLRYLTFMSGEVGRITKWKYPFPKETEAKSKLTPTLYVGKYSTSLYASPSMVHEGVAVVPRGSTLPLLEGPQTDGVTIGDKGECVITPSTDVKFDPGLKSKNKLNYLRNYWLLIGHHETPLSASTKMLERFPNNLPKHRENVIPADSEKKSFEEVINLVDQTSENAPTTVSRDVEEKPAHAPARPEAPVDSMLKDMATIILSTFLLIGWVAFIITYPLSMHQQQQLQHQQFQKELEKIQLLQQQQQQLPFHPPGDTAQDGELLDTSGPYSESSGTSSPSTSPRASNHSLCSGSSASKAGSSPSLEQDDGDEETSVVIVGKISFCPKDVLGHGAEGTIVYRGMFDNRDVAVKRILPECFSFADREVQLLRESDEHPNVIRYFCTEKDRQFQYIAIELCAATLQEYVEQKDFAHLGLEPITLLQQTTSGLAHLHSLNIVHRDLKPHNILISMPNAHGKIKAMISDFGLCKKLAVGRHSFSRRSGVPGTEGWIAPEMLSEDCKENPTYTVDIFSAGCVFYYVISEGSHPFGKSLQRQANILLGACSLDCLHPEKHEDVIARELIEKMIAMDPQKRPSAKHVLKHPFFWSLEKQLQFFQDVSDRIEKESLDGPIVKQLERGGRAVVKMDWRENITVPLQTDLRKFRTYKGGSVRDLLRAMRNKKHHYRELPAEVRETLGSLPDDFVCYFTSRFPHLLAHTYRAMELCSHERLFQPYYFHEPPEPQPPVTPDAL
Protocol: A fusion protein comprising glutathione S transferase (GST) and human IRE-1α (GST-IRE-1α) obtained from a 500 ml baculovirus-infected insect cell culture can be used to measure IRE-1α activity in vitro. Five μl of a reaction mixture comprising 1× reaction buffer (5× reaction buffer is 100 mM Hepes pH 7.5, 250 mM KOAc, 2.5 mM MgCl2), 3 mM DTT, and 0.4% polyethylene glycol water is added to each well of 384 well plates. Twenty-five nanoliters of a 1 mM test compound solution are added to test wells. […] Negative control wells contain only reaction mixture and test compound. After spinning the plates at 1200 rpm for 30 seconds, 3 μl of an IRE-1α human mini-XBP-1 mRNA stem-loop substrate [NT] ID NO:1), labeled with the fluorescent dye Cy5 at the [NT] end, are added to each well of a control plate. The plates are again spun at 1200 rpm for 30 seconds. […] The plates are covered with lids and incubated for one hour at 30° C. The plates are then transferred to an […] microplate reader. Data is analyzed using data analysis software, and the percent activity of IRE-1α is calculated.

[3] = tested on: human myeloma RPMI8226 tumor xenografts; experiment: RPMI8226 xenograft efficacy model; type: in vivo, mouse; settings: SCID mice bearing RPMI8226 xenografts, 0.75 mg/kg IV twice weekly
Protocol: SCID mice are implanted with tumor cells (human RPMI8226 myeloma cells) via IP, IV or SC routes based on the results from the xenograft model development studies (above). Mice are treated with compound or mock treated (vehicle) for a period of up to 4-5 weeks. Compound administration can be via IV, IP, PO or SC routes. In some cases, tunicamycin is administered via IP injection in order to stimulate stress in the animal. This stress mimics the stress an animal may undergo during times of tumor growth. The tunicaymycin injection mimics tumor growth during times of stress and permits evaluation of biomarkers which indicate the effectiveness of a compound (such as XBP-1 splicing) by RT-PCR, immunohistochemistry, or Western blots.
Mice are monitored for tumor growth, regression and general health. Tumors are collected and characterized by immunohistochemistry and/or FACS analysis. Tumor growth is measured by calipers, ultrasound, or by abdominal lavage. Biomarkers in the blood or tumor can evaluated (primarily XBP-1 splicing).
Tumor cells are cultured and injected IP, IV (tail vein) or SC (flank) in the mouse using a 21G needle in a volume of approx 100 μL. Mice are treated with compounds or vehicle alone as a control by IV, IP, SC or PO routes 5 days per week for up to 4-5 weeks. Blood is collected via retroorbital bleed (100 μA) at 2 time points (different eyes). […]

Cc1nc(-c2ccc3c(C=O)c(O)ccc3c2)sc1C(=O)N1CCN(C)CC1 [Compound 12-4] was tested, and the “inhibition of XBP-1 splicing in kidney” value (XBP-1 splicing; kidney) was “dose-dependent inhibition” and the “inhibition of XBP-1 splicing in liver” value (XBP-1 splicing; liver) was “dose-dependent inhibition”.

COCCNCCNC(=O)c1ccc(-c2ccc3c(C=O)c(O)ccc3c2)cn1 [Compound 125] gave an EC50 ([1]; Homo sapiens, MM1.S) of under 10 µM and an IC50 [2] of under 0.1 µM.

In the case of O=Cc1c(O)ccc2cc(-c3ccc(C(=O)NCCN4CCOCC4)nc3)ccc12 [Compound 126], the EC50 ([1]; Homo sapiens, MM1.S) is reported as under 10 µM and the IC50 [2] is reported as under 0.1 µM.

Work on CNC(=O)C1CCN(c2ccc3c(C=O)c(O)ccc3c2)C1 (centres unmarked) [Compound 127] yielded an EC50 ([1]; Homo sapiens, MM1.S) of over 10 µM and an IC50 [2] of under 1 µM.

CN(C)C(=O)C1CCN(c2ccc3c(C=O)c(O)ccc3c2)C1 (centres unmarked) [Compound 128] showed an EC50 ([1]; Homo sapiens, MM1.S) of over 10 µM and an IC50 [2] of over 1 µM.

O=Cc1c(O)ccc2cc(N3CCC(C(=O)N4CCCCC4)C3)ccc12 (centres unmarked) [Compound 129] gave an EC50 ([1]; Homo sapiens, MM1.S) of over 10 µM and an IC50 [2] of over 1 µM.

Work on CNC(=O)C1CCN(c2ccc3ccc(O)c(C=O)c3c2)C1 (centres unmarked) [Compound 131] yielded an EC50 ([1]; Homo sapiens, MM1.S) of over 10 µM and an IC50 [2] of over 1 µM.

CN(C)C(=O)C1CCN(c2ccc3ccc(O)c(C=O)c3c2)C1 (centres unmarked) [Compound 132] showed an EC50 ([1]; Homo sapiens, MM1.S) of over 10 µM and an IC50 [2] of over 1 µM.

Work on O=Cc1c(O)ccc2ccc(N3CCC(C(=O)N4CCCCC4)C3)cc12 (centres unmarked) [Compound 133] yielded an EC50 ([1]; Homo sapiens, MM1.S) of over 10 µM and an IC50 [2] of over 1 µM.

CN(Cc1ccccc1)C(=O)C1CCN(c2ccc3ccc(O)c(C=O)c3c2)C1 (centres unmarked) [Compound 134] was tested, and the EC50 ([1]; Homo sapiens, MM1.S) was over 10 µM and the IC50 [2] was over 1 µM.

With CN(C)C1CCN(c2ccc3ccc(O)c(C=O)c3c2)C1 (centres unmarked) [Compound 135] the EC50 ([1]; Homo sapiens, MM1.S) was over 10 µM and the IC50 [2] was over 1 µM.

Compound O=Cc1c(O)ccc2ccc(N3CCC(N4CCCCC4)C3)cc12 (centres unmarked) [Compound 137] has an EC50 ([1]; Homo sapiens, MM1.S) of over 10 µM and an IC50 [2] of over 1 µM.

In the case of CN1CCN(C2CCN(c3ccc4ccc(O)c(C=O)c4c3)C2)CC1 (centres unmarked) [Compound 138], the EC50 ([1]; Homo sapiens, MM1.S) is reported as over 10 µM and the IC50 [2] is reported as over 1 µM.

Work on O=Cc1c(O)ccc2cc(-c3ccc(C(=O)NCCN4CCOCC4)cc3)ccc12 [Compound 139] yielded an EC50 ([1]; Homo sapiens, MM1.S) of under 10 µM and an IC50 [2] of under 0.1 µM.

Cc1nc(-c2ccc3c(C=O)c(O)ccc3c2)sc1C(=O)N1CCCC1 [Compound 140] showed an EC50 ([1]; Homo sapiens, MM1.S) of under 10 µM and an IC50 [2] of under 0.1 µM.

With COCCNC(=O)c1sc(-c2ccc3c(C=O)c(O)ccc3c2)nc1C [Compound 141] the EC50 ([1]; Homo sapiens, MM1.S) was under 10 µM and the IC50 [2] was under 0.1 µM.

With Cc1nc(-c2ccc3c(C=O)c(O)ccc3c2)sc1C(=O)NCCN1CCOCC1 [Compound 142] the EC50 ([1]; Homo sapiens, MM1.S) was under 10 µM and the IC50 [2] was under 0.1 µM.

CN1CCC(NC(=O)c2ccc(-c3ccc4c(C=O)c(O)ccc4c3)cc2)CC1 [Compound 143] gave an EC50 ([1]; Homo sapiens, MM1.S) of under 10 µM and an IC50 [2] of over 1 µM.

With Cc1nc(-c2ccc3c(C=O)c(O)ccc3c2)sc1C(=O)NC1CCNCC1 [Compound 144] the EC50 ([1]; Homo sapiens, MM1.S) was under 10 µM and the IC50 [2] was under 0.1 µM.

For Cc1nc(-c2ccc3c(C=O)c(O)ccc3c2)sc1C(=O)NC1CCN(C)CC1 [Compound 145], the EC50 ([1]; Homo sapiens, MM1.S) was under 10 µM and the IC50 [2] was under 1 µM.

In the case of CN(Cc1ccccc1)C1CCN(c2ccc3c(C=O)c(O)ccc3c2)C1 (centres unmarked) [Compound 146], the EC50 ([1]; Homo sapiens, MM1.S) is reported as over 10 µM and the IC50 [2] is reported as over 1 µM.

CN(Cc1ccncc1)C1CCN(c2ccc3c(C=O)c(O)ccc3c2)C1 (centres unmarked) [Compound 147] gave an EC50 ([1]; Homo sapiens, MM1.S) of over 10 µM and an IC50 [2] of over 1 µM.

With CN(Cc1ccncc1)C(=O)C1CCN(c2ccc3ccc(O)c(C=O)c3c2)C1 (centres unmarked) [Compound 148] the EC50 ([1]; Homo sapiens, MM1.S) was over 10 µM and the IC50 [2] was over 1 µM.

Compound O=Cc1c(O)ccc2ccc(N3CCC(C(=O)N4CCOCC4)C3)cc12 (centres unmarked) [Compound 149] has an EC50 ([1]; Homo sapiens, MM1.S) of over 10 µM and an IC50 [2] of over 1 µM.

CN1CCN(C(=O)C2CCN(c3ccc4ccc(O)c(C=O)c4c3)C2)CC1 (centres unmarked) [Compound 150] was tested, and the EC50 ([1]; Homo sapiens, MM1.S) was over 10 µM and the IC50 [2] was over 1 µM.

Compound O=Cc1c(O)ccc2cc(-c3ccc(C(=O)NC4CCNCC4)nc3)ccc12 [Compound 151] has an EC50 ([1]; Homo sapiens, MM1.S) of under 10 µM and an IC50 [2] of under 1 µM.

For CN(Cc1ccccc1)C1CCN(c2ccc3ccc(O)c(C=O)c3c2)C1 (centres unmarked) [Compound 152], the EC50 ([1]; Homo sapiens, MM1.S) was over 10 µM and the IC50 [2] was over 1 µM.

O=Cc1c(O)ccc2cc(N3CCC(NCc4ccccc4)C3)ccc12 (centres unmarked) [Compound 153] gave an EC50 ([1]; Homo sapiens, MM1.S) of over 10 µM and an IC50 [2] of over 1 µM.

Compound CC(=O)NC1CCN(c2ccc3c(C=O)c(O)ccc3c2)C1 (centres unmarked) [Compound 154] has an EC50 ([1]; Homo sapiens, MM1.S) of under 10 µM and an IC50 [2] of under 1 µM.

In the case of CN(Cc1ccncc1)C1CCN(c2ccc3ccc(O)c(C=O)c3c2)C1 (centres unmarked) [Compound 155], the EC50 ([1]; Homo sapiens, MM1.S) is reported as over 10 µM and the IC50 [2] is reported as over 1 µM.

CC(=O)NC1CCN(c2ccc3ccc(O)c(C=O)c3c2)C1 (centres unmarked) [Compound 156] was tested, and the EC50 ([1]; Homo sapiens, MM1.S) was over 10 µM and the IC50 [2] was over 1 µM.

In the case of CC(=O)N(C)C1CCN(c2ccc3ccc(O)c(C=O)c3c2)C1 (centres unmarked) [Compound 157], the EC50 ([1]; Homo sapiens, MM1.S) is reported as over 10 µM and the IC50 [2] is reported as over 1 µM.

Work on CN(Cc1ccncc1)C(=O)C1CCN(c2ccc3c(C=O)c(O)ccc3c2)C1 (centres unmarked) [Compound 158] yielded an EC50 ([1]; Homo sapiens, MM1.S) of over 10 µM and an IC50 [2] of under 1 µM.

For CC(C)N1CCN(c2ccc3ccc(O)c(C=O)c3c2)CC1 [Compound 159], the EC50 ([1]; Homo sapiens, MM1.S) was over 10 µM and the IC50 [2] was over 1 µM.

With CN1CCN(C(=O)COc2ccc3c(C=O)c(O)ccc3c2)CC1 [Compound 165] the EC50 [1] was over 10 µM and the IC50 [2] was over 1 µM.

Compound COCCNC(=O)c1ccc(-c2ccc3c(C=O)c(O)ccc3c2)cc1 [Compound 170] has an EC50 [1] of under 10 µM and an IC50 [2] of over 1 µM.

O=Cc1c(O)ccc2cc(-c3ccc(C(=O)NC4CCCNC4)o3)ccc12 (centres unmarked) [Compound 171] was tested, and the EC50 ([1]; Homo sapiens, MM1.S) was under 10 µM and the IC50 [2] was under 0.1 µM.

With O=Cc1c(O)ccc2ccc(OS(=O)(=O)C(F)(F)F)cc12 [Compound 177] the EC50 ([1]; Homo sapiens, MM1.S) was over 10 µM and the IC50 [2] was under 1 µM.

For O=Cc1c(O)ccc2cc(OCC(=O)O)ccc12 [Compound 178], the EC50 ([1]; Homo sapiens, MM1.S) was over 10 µM and the IC50 [2] was over 1 µM.

N#Cc1ccc(Oc2ccc3c(C=O)c(O)ccc3c2)cc1 [Compound 181] was tested, and the EC50 ([1]; Homo sapiens, MM1.S) was under 10 µM and the IC50 [2] was under 1 µM.

With O=Cc1c(O)ccc2cc(Oc3ccc(C(=O)O)cc3)ccc12 [Compound 182] the EC50 ([1]; Homo sapiens, MM1.S) was under 10 µM and the IC50 [2] was under 0.1 µM.

CC(C)C[C@H](NC(=O)[C@H](Cc1ccccc1)NC(=O)c1cnccn1)B(O)O [bortezomib] was tested, and the tumor growth [3] was “suppression of tumor growth”.
